Assay results: patent US20150344457A1, “METHODS OF INHIBITING PRMT5” (EPIZYME, INC., priority 2012, published 2015)

System: Z-138 cells
Assay: Z-138 Methylation Assay (In Cell Western for symmetric di-methyl arginine and DNA content)
Type: cell-based
Conditions: Homo sapiens, Table A-2, 96 hours, symmetric di-methyl arginine, read-out: ICW EC50
Text: Z-138 suspension cells were purchased from ATCC (American Type Culture Collection, Manassas, Va.). RPMI/Glutamax medium, penicillin-streptomycin, heat inactivated fetal bovine serum, and D-PBS were purchased from Life Technologies, Grand Island, N.Y., USA. Odyssey blocking buffer, 800CW goat anti-rabbit IgG (H+L) antibody, and Licor Odyssey infrared scanner were purchased from Licor Biosciences, Lincoln, Nebr., USA. Symmetric di-methyl arginine antibody was purchased from EMD Millipore, Billerica, Mass., USA. 16% Paraformaldehyde was purchased from Electron Microscopy Sciences, Hatfield, Pa., USA.
Z-138 suspension cells were maintained in growth medium (RPMI 1640 supplemented with 10% v/v heat inactivated fetal bovine serum and 100 units/mL penicillin-streptomycin) and cultured at 37° C. under 5% CO2.
Cell Treatment, in Cell Western (ICW) for Detection of Symmetric Di-Methyl Arginine and DNA Content.
Z-138 cells were seeded in assay medium at a concentration of 50,000 cells per mL to a 384-well cell culture plate with 50 μL per well. Compound (100 nL) from 384 well source plates was added directly to 384 well cell plate. Plates were incubated at 37° C., 5% CO2 for 96 hours. After four days of incubation, 40 μL of cells from incubated plates were added to poly-D-lysine coated 384 well culture plates (BD Biosciences 356697). Plates were incubated at room temperature for 30 minutes then incubated at 37° C., 5% CO2 for 5 hours. After the incubation, 40 μL per well of 8% paraformaldehyde in PBS (16% paraformaldahyde was diluted to 8% in PBS) was added to each plate and incubated for 30 minutes. Plates were transferred to a Biotek 405 plate washer and washed 5 times with 100 μL per well of wash buffer (1×PBS with 0.1% Triton X-100 (v/v)). Next 30 μL per well of Odyssey blocking buffer were added to each plate and incubated 1 hour at room temperature. Blocking buffer was removed and 20 μL per well of primary antibody was added (symmetric di-methyl arginine diluted 1:100 in Odyssey buffer with 0.1% Tween 20 (v/v)) and plates were incubated overnight (16 hours) at 4° C. Plates were washed 5 times with 100 μL per well of wash buffer. Next 20 μL per well of secondary antibody was added (1:200 800CW goat anti-rabbit IgG (H+L) antibody, 1:1000 DRAQS (Biostatus limited) in Odyssey buffer with 0.1% Tween 20 (v/v)) and incubated for 1 hour at room temperature. The plates were washed 5 times with 100 μL per well wash buffer then 1 time with 100 μL per well of water. Plates were allowed to dry at room temperature then imaged on the Licor Odyssey machine which measures integrated intensity at 700 nm and 800 nm wavelengths. Both 700 and 800 channels were scanned.
First, the ratio for each well was determined by:
Each plate included fourteen control wells of DMSO only treatment (minimum inhibition) as well as fourteen control wells for maximum inhibition treated with 3 μM of a reference compound (Background wells). The average of the ratio values for each control type was calculated and used to determine the percent inhibition for each test well in the plate. Reference compound was serially diluted three-fold in DMSO for a total of nine test concentrations, beginning at 3 μM. Percent inhibition was determined and IC50 curves were generated using triplicate wells per concentration of compound.

Row | Compound | EC50 [nM]
1 | O=C(COc1cccc2cccnc12)NCC(O)CN1CCc2ccccc2C1 (stereo not drawn) [Compound A6] | < 100
2 | N#Cc1cccc(OCC(=O)NCC(O)CN2CCc3ccccc3C2)c1 (stereo not drawn) [Compound A8] | 101 to 1000
3 | N#Cc1ccc(OCC(=O)NCC(O)CN2CCc3ccccc3C2)cc1 (stereo not drawn) [Compound A11] | 101 to 1000
4 | Cc1ccccc1OCC(=O)NCC(O)CN1CCc2ccccc2C1 (stereo not drawn) [Compound A15] | 101 to 1000
5 | O=C(COc1ccccc1F)NCC(O)CN1CCc2ccccc2C1 (stereo not drawn) [Compound A16] | 101 to 1000
6 | O=C(CNc1ccccc1)NCC(O)CN1CCc2ccccc2C1 (stereo not drawn) [Compound A18] | 1000 to 10000
7 | CC(=O)Nc1ccc(OCC(=O)NCC(O)CN2CCc3ccccc3C2)cc1 (stereo not drawn) [Compound A21] | 101 to 1000
8 | Cc1cccc(OCC(=O)NCC(O)CN2CCc3ccccc3C2)c1 (stereo not drawn) [Compound A26] | 101 to 1000
9 | CS(=O)(=O)Nc1cccc(OCC(=O)NCC(O)CN2CCc3ccccc3C2)c1 (stereo not drawn) [Compound A28] | 101 to 1000
10 | O=C(COc1ccccc1)NC[C@H](O)CN1CCc2ccccc2C1 [Compound A32] | 101 to 1000
11 | CN(C)c1ccc(OCC(=O)NCC(O)CN2CCc3ccccc3C2)cc1 (stereo not drawn) [Compound A35] | 101 to 1000
12 | CC(=O)Nc1ccccc1OCC(=O)NCC(O)CN1CCc2ccccc2C1 (stereo not drawn) [Compound A36] | 101 to 1000
13 | CC(Oc1cccc2cccnc12)C(=O)NCC(O)CN1CCc2ccccc2C1 (stereo not drawn) [Compound A39] | < 100
14 | CS(=O)(=O)Nc1ccc(OCC(=O)NCC(O)CN2CCc3ccccc3C2)cc1 (stereo not drawn) [Compound A42] | 101 to 1000
15 | O=C(COc1cccc2cccnc12)NC[C@H](O)CN1CCc2ccccc2C1 [Compound A44] | 101 to 1000
16 | O=C(COc1cccc2cccnc12)NC[C@@H](O)CN1CCc2ccccc2C1 [Compound A45] | < 100
17 | CS(=O)(=O)c1cccc(OCC(=O)NCC(O)CN2CCc3ccccc3C2)c1 (stereo not drawn) [Compound A47] | 101 to 1000
18 | O=C(COc1ccccc1-c1cc[nH]n1)NCC(O)CN1CCc2ccccc2C1 (stereo not drawn) [Compound A50] | < 100

Row | Compound | EC50 [nM]
19 | O=C(COc1cccc2c1CCCC2)NCC(O)CN1CCc2ccccc2C1 (stereo not drawn) [Compound A64] | 101 to 1000
20 | O=C(COc1ccc2ncn(C3CCNCC3)c2c1)NCC(O)CN1CCc2ccccc2C1 (stereo not drawn) [Compound A70] | 101 to 1000
21 | CN1CCC(n2ncc3cc(OCC(=O)NCC(O)CN4CCc5ccccc5C4)ccc32)C1 (stereo not drawn) [Compound A96] | 101 to 1000
22 | COc1ccc2cccc(OCC(=O)NC[C@H](O)CN3CCc4ccccc4C3)c2n1 [Compound A97] | 101 to 1000
23 | CN1CCc2c(cccc2OCC(=O)NCC(O)CN2CCc3ccccc3C2)C1 (stereo not drawn) [Compound A99] | 101 to 1000
24 | O=C(COc1cccc2c1OCCO2)NCC(O)CN1CCc2ccccc2C1 (stereo not drawn) [Compound A100] | < 100
25 | CC(=O)N1CCc2c(cccc2OCC(=O)NCC(O)CN2CCc3ccccc3C2)C1 (stereo not drawn) [Compound A101] | < 100
26 | CS(=O)(=O)N1CCc2c(cccc2OCC(=O)NCC(O)CN2CCc3ccccc3C2)C1 (stereo not drawn) [Compound A102] | < 100
27 | O=C(COc1ccccc1C1CCNCC1)NCC(O)CN1CCc2ccccc2C1 (stereo not drawn) [Compound A103] | 101 to 1000
28 | CN(C)c1ccc2cccc(OCC(=O)NC[C@@H](O)CN3CCc4ccccc4C3)c2n1 [Compound A105] | 101 to 1000
29 | CN1CCN(S(=O)(=O)c2ccccc2OCC(=O)NCC(O)CN2CCc3ccccc3C2)CC1 (stereo not drawn) [Compound A108] | 101 to 1000
30 | CN(C)S(=O)(=O)c1ccccc1OCC(=O)NCC(O)CN1CCc2ccccc2C1 (stereo not drawn) [Compound A109] | < 100
31 | O=C(COc1ccccc1S(=O)(=O)N1CCCC1)NCC(O)CN1CCc2ccccc2C1 (stereo not drawn) [Compound A110] | < 100
32 | O=C(COc1ccccc1S(=O)(=O)N1CCC(O)C1)NCC(O)CN1CCc2ccccc2C1 (stereo not drawn) [Compound A111] | < 100
33 | CNC(=O)c1ccccc1OCC(=O)NCC(O)CN1CCc2ccccc2C1 (stereo not drawn) [Compound A112] | 101 to 1000
34 | CC(Oc1ccccc1S(C)(=O)=O)C(=O)NCC(O)CN1CCc2ccccc2C1 (stereo not drawn) [Compound A114] | 1000 to 10000
35 | O=C(COc1ccccc1C1CCNC1)NCC(O)CN1CCc2ccccc2C1 (stereo not drawn) [Compound A116] | 1000 to 10000

More lines, now with the values ahead:

Row | EC50 [nM] | Compound
36 | 101 to 1000 | O=C(COc1cccc(F)c1)NCC(O)CN1CCc2ccccc2C1 (stereo not drawn) [Compound A7]
37 | 10000 to 50000 | Cc1ccc(OCC(=O)NCC(O)CN2CCc3ccccc3C2)cc1 (stereo not drawn) [Compound A9]
38 | 101 to 1000 | COc1ccc(OCC(=O)NCC(O)CN2CCc3ccccc3C2)cc1 (stereo not drawn) [Compound A12]
39 | 101 to 1000 | N#Cc1ccccc1OCC(=O)NCC(O)CN1CCc2ccccc2C1 (stereo not drawn) [Compound A17]
40 | 101 to 1000 | CC(Oc1ccccc1)C(=O)NCC(O)CN1CCc2ccccc2C1 (stereo not drawn) [Compound A19]
41 | 101 to 1000 | COc1cccc(OCC(=O)NCC(O)CN2CCc3ccccc3C2)c1 (stereo not drawn) [Compound A20]
42 | 101 to 1000 | COc1ccccc1OCC(=O)NCC(O)CN1CCc2ccccc2C1 (stereo not drawn) [Compound A22]
43 | 101 to 1000 | Cn1ncc2ccc(OCC(=O)NCC(O)CN3CCc4ccccc4C3)cc21 (stereo not drawn) [Compound A23]
44 | 101 to 1000 | CN(C)c1cccc(OCC(=O)NCC(O)CN2CCc3ccccc3C2)c1 (stereo not drawn) [Compound A27]
45 | 101 to 1000 | NC(=O)c1ccccc1OCC(=O)NCC(O)CN1CCc2ccccc2C1 (stereo not drawn) [Compound A29]
46 | 101 to 1000 | CC(=O)Nc1cccc(OCC(=O)NCC(O)CN2CCc3ccccc3C2)c1 (stereo not drawn) [Compound A31]
47 | 101 to 1000 | NC(=O)c1cccc(OCC(=O)NCC(O)CN2CCc3ccccc3C2)c1 (stereo not drawn) [Compound A34]
48 | < 100 | CS(=O)(=O)c1ccccc1OCC(=O)NCC(O)CN1CCc2ccccc2C1 (stereo not drawn) [Compound A37]
49 | < 100 | CN(C)c1ccccc1OCC(=O)NCC(O)CN1CCc2ccccc2C1 (stereo not drawn) [Compound A38]
50 | 101 to 1000 | O=C(COc1ccccc1C1CCCCC1)NCC(O)CN1CCc2ccccc2C1 (stereo not drawn) [Compound A40]
51 | 101 to 1000 | CC(C)(Oc1cccc2cccnc12)C(=O)NCC(O)CN1CCc2ccccc2C1 (stereo not drawn) [Compound A43]
52 | 101 to 1000 | Cn1cnc2cc(OCC(=O)NCC(O)CN3CCc4ccccc4C3)ccc21 (stereo not drawn) [Compound A46]

Row | EC50 [nM] | Compound
53 | 101 to 1000 | O=C(COc1cccc2ccc(N3CCOCC3)nc12)NCC(O)CN1CCc2ccccc2C1 (stereo not drawn) [Compound A48]
54 | 101 to 1000 | O=C(COc1ccccc1N1CCOCC1)NCC(O)CN1CCc2ccccc2C1 (stereo not drawn) [Compound A49]
55 | 101 to 1000 | CS(=O)(=O)Nc1ccccc1OCC(=O)NCC(O)CN1CCc2ccccc2C1 (stereo not drawn) [Compound A53]
56 | 101 to 1000 | NS(=O)(=O)c1ccccc1OCC(=O)NCC(O)CN1CCc2ccccc2C1 (stereo not drawn) [Compound A65]
57 | 101 to 1000 | O=C(COc1cccc2ccccc12)NCC(O)CN1CCc2ccccc2C1 (stereo not drawn) [Compound A66]
58 | < 100 | O=C(COc1ccccc1-c1cc[nH]n1)NC[C@@H](O)CN1CCc2ccccc2C1 [Compound A67]
59 | 101 to 1000 | O=C(COc1ccccc1-c1cc[nH]n1)NC[C@H](O)CN1CCc2ccccc2C1 [Compound A68]
60 | 101 to 1000 | CN1CCC(n2cnc3ccc(OCC(=O)NCC(O)CN4CCc5ccccc5C4)cc32)CC1 (stereo not drawn) [Compound A71]
61 | < 100 | C[C@@H](Oc1cccc2cccnc12)C(=O)NC[C@H](O)CN1CCc2ccccc2C1 [Compound A73]
62 | 101 to 1000 | C[C@@H](Oc1cccc2cccnc12)C(=O)NC[C@@H](O)CN1CCc2ccccc2C1 [Compound A74]
63 | < 100 | COc1ccc2cccc(OCC(=O)NC[C@@H](O)CN3CCc4ccccc4C3)c2n1 [Compound A98]
64 | 1000 to 10000 | CN(C)c1ccc2cccc(OCC(=O)NC[C@H](O)CN3CCc4ccccc4C3)c2n1 [Compound A104]
65 | 101 to 1000 | CS(=O)(=O)N1CCN(c2ccccc2OCC(=O)NCC(O)CN2CCc3ccccc3C2)CC1 (stereo not drawn) [Compound A106]
66 | < 100 | O=C(COc1ccccc1S(=O)(=O)N1CCNCC1)NCC(O)CN1CCc2ccccc2C1 (stereo not drawn) [Compound A107]
67 | 101 to 1000 | CN(C)C(=O)c1ccccc1OCC(=O)NCC(O)CN1CCc2ccccc2C1 (stereo not drawn) [Compound A113]
68 | 101 to 1000 | O=C(COc1ccccc1C1CCCNC1)NCC(O)CN1CCc2ccccc2C1 (stereo not drawn) [Compound A117]
69 | 1000 to 10000 | Cn1cc2c(OCC(=O)NCC(O)CN3CCc4ccccc4C3)cccc2n1 (stereo not drawn) [Compound A118]
